Laboratory results taken from US20040006127A1, “Activation of the cystic fibrosis transmembrane conductance regulator chloride channel” (priority 2000, published 2004).
“Also recorded” adds a separate entry of the source. Each block holds one compound with its values, some of them ahead of it.

What was measured:
[1] = molecular target: T1, wild-type human CFTR (Homo sapiens, UniProt P13569); test: CFTR Cl- currents in excised inside-out membrane patches from C127 cells (time course, I-V studies); assay type: biochemical; conditions: for effect on channel activity at positive voltages: phloxine B 40 μM; for concentration that maximally stimulated channel activity: excised membrane patches
T1 construct: expressed in transfected cells
Procedure: For electrophysiological experiments, we used mouse mammary epithelial cells (C127 cells) stably expressing wild-type human CFTR or ΔF508, the most common CF-associated mutation (11). C127 cells expressing wild-type CFTR were cultured as previously described (12). C127 cells expressing ΔF508 were cultured at 28° C., to overcome the processing defect of ΔF508 and promote bs delivery to the cell membrane (13). Cells were seeded onto glass coverslips and used within either 48 h (wild-type CFTR) or 1 week (ΔF508).
CFTR Cl^− channels were recorded in excised inside-out membrane patches using an Axopatch 200A patch-clamp amplifier (Axon Instruments Inc., Foster City, USA) and pCLAMP data acquisition and analysis software (version 6.03, Axon Instruments Inc.) as previously described (12,14). The established sign convention was used throughout; currents produced by positive charge moving from intra- to extracellular solutions (anions moving in the opposite direction) are shown as positive currents.
The pipette (extracellular) solution contained (in mM): 140 N-methyl-D-glucamine (NMDG), 140 aspartic acid, 5 CaCl2, 2 MgSO4, and 10 N-tris[hydroxymethyl]methyl-2-aminoethanesulphonic acid (Tes), pH 7.3 with Tris ([Cl^−], 10 mM). The bath (intracellular) solution contained (in mM): 140 NMDG, 3 MgCl2, 1 ethylene glycol-bis(β-aminoethylether)-N,N,N′,N′-tetraacetic acid caesium salt (CsEGTA), and 10 Tes, pH 7.3 with HCl, ([Cl^−], 147 mM; [Ca^2+]free, <10^−8 M). All experiments were conducted at 37° C.
After excision of membrane patches from C127 cells. CFTR Cl^− channels were activated by the addition of the catalytic subunit of protein kinase A (PKA; 75 nM) and ATP (1.0 mM) to the intracellular solution within 5 min of patch excision. […] PKA was maintained in the intracellular solution for the duration of experiments. Voltage was −50 mV. […] The number of channels per patch was determined from the maximum number of simultaneous channel openings observed during the course of an experiment, as previously described (12). […] To investigate whether modulation of CFTR by fluorescein derivatives was voltage dependent, we used a voltage ramp protocol. Macroscopic current-voltage (I-V) relationships were obtained. In the absence and presence of fluorescein derivatives by averaging currents generated by 15-30 ramps of voltage, each of 2 s duration; holding voltage was −50 mV. Basal currents recorded in the absence of PKA and ATP were subtracted from those recorded in the absence and presence of fluorescein derivatives to determine the effect of fluorescein derivatives on CFTR Cl^− currents,
CFTR Cl^− currents were initially recorded on digital audiotape using a digital tape recorder (Biologic Scientific Instruments, model DTR-1204; lntracel Ltd, Royston, UK) at a bandwidth of 10 kHz. On playback, records were filtered with an eight-pole Bessel filter (Frequency Devices, model 902LPF2: Scensys Ltd, Aylesbury, UK) at a corner frequency of 500 Hz and acquired using a Digidata 1200 interface (Axon Instruments Inc.) and pCLAMP at sampling rates of either 2.5 kHz (time course studies) or 5.0 kHz (single-channel studies).
In time course studies, each point is the average current for a 4 s period with data points collected continuously, no data were collected while solutions were changed. Average current (I) for a specific intervention was determined as the average of all the data points collected during the intervention. The relationship between drug concentration and CFTR inhibition was fitted to the Hill equation:
IDrug/IControl=1/{1+([Drug]/Ki)^n}, (1)
where [Drug] is the concentration of drug, IDrug/IControl is the fractional current at the indicated drug concentration relative to that in the same solution in the absence of added drug, Ki is the drug concentration causing half-maximal inhibition, and n is the slope factor (Hill coefficient). Mean data were fitted to a linear form of equation (1) using linear least-squares regression to yield Ki and n values.

[2] = molecular target: T2, KATP currents (Homo sapiens, UniProt Q09428+Q14654); conditions: added to the extracellular solution; de Weille et al. (10); cited from earlier work
T2 construct: host or cells: pancreatic β-cells

[3] = molecular target: T3, endogenous CFTR Cl- channels in Type I MDCK cells (Canis lupus familiaris, UniProt Q5U820); test: cAMP-stimulated iodide efflux from Type I MDCK cells; assay type: cell-based, canine
T3 construct: Type I MDCK cells are kidney epithelial cells that endogenously express the CFTR Cl^− channel; endogenous in cells; host or cells: Type I MDCK cells
Procedure: For iodide efflux experiments, we used Type I Mardin-Darby canine kidney (MDCK) cells. MDCK cells were cultured in MDCK media (a 1:1 mixture of Dulbecco's Modified Eagle Medium (DMEM) and Ham's F-12 nutrient medium supplemented with 10% fetal bovine serum, 100 U ml^1 penicillin, and […] ml^−streptomycin; all from Life Technologies Ltd, Paisley, UK) at 37° C. in a humidified atmosphere of 5% CO2. Cells were seeded onto 60 mm plastic culture dishes and used 72-96 h later.
Type I MDCK cells (≧90% confluent) were incubated for 1 h in a loading buffer containing (mM): 136 Nal, 3 KNO3, 2 Ca(NO3)2, 11 glucose, and 20 Hepes, adjusted to pH 7.4 with NaOH. […] The efflux buffer was changed at 1 min intervals over the duration of the experiment, which typically lasted 18 min. Four minutes after anion substitution, cells were exposed to agonists for 4 min. The amount of iodide in each 2.5 ml sample of efflux buffer was determined using an iodide-selective electrode (Russell pH Ltd. Auchtermuchty, UK). Cells were loaded and experiments performed at room temperature (23° C.).
Type I MDCK cells are kidney epithelial cells that endogenously express the CFTR Cl^− channel (20).
Nitrate was substituted for iodide in the bathing medium at t=−4 min and iodide efflux was monitored at 1 min intervals, for the duration of the experiment.

[4] = molecular target: T1, wild-type human CFTR; test: Single-channel recording of CFTR Cl- channels in excised inside-out membrane patches from C127 cells; assay type: biochemical
[5] = molecular target: T4, ΔF508 CFTR (Homo sapiens, UniProt P13569, DEL508-508); test: Single-channel recording of ΔF508 CFTR Cl- channels in excised patches from C127 cells grown at 28° C.; assay type: biochemical; conditions: 1 μM
T4 construct: expressed in transfected cells

[6] = molecular target: wild-type CFTR Cl- channels (Homo sapiens, UniProt P13569); conditions: reported by Wang et al. (18); cited from earlier work
[7] = 1 μM, ATP 0.3 mM, PKA 75 nM, -50 mV
[8] = eosin Y 100 μM, symmetrical 147 mM Cl-, ATP 1 mM

T4 sequence (P13569 with tags, fused parts or gaps DEL508-508): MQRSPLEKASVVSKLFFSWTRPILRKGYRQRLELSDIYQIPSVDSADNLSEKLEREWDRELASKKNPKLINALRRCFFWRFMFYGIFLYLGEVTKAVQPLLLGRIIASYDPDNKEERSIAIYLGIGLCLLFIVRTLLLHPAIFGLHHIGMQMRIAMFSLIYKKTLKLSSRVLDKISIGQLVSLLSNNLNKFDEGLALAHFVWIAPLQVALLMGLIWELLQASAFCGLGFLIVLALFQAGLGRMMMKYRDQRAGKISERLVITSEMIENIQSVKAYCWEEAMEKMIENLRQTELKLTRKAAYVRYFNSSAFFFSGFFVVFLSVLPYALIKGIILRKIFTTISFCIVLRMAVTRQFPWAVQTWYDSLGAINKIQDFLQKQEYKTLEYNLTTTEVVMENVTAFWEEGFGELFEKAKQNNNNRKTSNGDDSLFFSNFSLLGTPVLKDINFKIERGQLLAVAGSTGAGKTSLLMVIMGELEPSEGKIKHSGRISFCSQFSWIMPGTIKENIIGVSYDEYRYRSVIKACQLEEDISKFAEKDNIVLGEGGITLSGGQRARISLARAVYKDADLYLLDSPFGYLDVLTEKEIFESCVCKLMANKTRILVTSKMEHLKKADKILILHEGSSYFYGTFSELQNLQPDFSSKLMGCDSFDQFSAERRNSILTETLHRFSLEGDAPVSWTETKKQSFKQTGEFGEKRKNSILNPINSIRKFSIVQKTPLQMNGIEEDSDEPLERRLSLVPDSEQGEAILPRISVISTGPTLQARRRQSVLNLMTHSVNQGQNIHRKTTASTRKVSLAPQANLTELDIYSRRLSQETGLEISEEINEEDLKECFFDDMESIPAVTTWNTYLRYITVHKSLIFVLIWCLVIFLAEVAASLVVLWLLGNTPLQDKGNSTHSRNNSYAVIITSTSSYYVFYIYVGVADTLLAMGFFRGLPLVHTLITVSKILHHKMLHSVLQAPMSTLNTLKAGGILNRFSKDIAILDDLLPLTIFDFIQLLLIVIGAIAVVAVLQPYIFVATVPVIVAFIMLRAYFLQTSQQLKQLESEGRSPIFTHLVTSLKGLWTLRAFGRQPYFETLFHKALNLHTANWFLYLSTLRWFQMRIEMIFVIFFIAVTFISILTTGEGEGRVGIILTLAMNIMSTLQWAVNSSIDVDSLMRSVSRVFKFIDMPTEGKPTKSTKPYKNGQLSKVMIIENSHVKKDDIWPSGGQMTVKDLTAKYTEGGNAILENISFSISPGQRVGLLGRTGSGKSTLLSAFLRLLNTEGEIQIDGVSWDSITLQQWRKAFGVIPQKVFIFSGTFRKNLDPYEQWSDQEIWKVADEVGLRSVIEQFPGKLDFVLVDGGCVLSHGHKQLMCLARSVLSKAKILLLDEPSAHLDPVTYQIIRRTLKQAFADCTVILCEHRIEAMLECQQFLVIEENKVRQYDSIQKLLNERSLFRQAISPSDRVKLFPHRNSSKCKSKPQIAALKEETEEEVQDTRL
T1 sequence (P13569 whole entry): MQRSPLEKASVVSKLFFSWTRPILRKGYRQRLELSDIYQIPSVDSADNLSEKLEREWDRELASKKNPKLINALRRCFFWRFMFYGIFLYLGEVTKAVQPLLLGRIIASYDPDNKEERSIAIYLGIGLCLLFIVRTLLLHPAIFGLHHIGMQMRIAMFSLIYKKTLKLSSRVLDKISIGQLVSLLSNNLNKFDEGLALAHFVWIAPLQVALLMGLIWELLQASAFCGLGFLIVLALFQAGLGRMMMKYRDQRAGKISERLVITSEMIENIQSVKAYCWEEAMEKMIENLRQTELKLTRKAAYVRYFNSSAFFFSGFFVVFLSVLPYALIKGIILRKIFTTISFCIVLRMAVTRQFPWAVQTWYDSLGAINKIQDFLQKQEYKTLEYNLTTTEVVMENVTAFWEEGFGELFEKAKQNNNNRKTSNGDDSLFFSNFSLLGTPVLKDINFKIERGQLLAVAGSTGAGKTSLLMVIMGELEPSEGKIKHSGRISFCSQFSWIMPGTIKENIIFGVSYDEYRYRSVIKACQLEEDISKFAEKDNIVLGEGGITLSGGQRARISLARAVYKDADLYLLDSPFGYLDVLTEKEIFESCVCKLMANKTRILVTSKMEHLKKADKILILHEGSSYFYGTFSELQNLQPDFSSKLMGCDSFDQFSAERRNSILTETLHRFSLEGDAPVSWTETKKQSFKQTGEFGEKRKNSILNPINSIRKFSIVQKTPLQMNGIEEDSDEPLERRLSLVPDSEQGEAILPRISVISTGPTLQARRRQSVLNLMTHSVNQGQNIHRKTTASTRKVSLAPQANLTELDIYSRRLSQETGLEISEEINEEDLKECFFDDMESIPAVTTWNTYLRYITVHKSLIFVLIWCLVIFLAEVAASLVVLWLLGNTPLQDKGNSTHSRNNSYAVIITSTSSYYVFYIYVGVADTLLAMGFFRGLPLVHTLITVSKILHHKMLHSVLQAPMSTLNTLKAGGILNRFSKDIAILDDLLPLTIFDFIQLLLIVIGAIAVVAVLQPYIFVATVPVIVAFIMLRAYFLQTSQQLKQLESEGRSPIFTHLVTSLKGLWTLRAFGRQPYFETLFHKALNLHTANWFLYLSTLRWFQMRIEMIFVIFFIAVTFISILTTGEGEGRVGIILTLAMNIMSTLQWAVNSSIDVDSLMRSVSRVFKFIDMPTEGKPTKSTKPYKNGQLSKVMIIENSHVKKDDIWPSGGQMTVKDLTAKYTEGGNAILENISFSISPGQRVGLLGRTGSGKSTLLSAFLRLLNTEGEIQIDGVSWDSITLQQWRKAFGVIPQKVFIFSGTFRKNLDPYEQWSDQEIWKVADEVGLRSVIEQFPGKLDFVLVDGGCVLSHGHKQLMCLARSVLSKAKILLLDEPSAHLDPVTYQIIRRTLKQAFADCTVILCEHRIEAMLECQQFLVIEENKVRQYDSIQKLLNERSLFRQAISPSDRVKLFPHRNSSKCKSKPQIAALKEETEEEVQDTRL
T3 sequence (Q5U820 whole entry): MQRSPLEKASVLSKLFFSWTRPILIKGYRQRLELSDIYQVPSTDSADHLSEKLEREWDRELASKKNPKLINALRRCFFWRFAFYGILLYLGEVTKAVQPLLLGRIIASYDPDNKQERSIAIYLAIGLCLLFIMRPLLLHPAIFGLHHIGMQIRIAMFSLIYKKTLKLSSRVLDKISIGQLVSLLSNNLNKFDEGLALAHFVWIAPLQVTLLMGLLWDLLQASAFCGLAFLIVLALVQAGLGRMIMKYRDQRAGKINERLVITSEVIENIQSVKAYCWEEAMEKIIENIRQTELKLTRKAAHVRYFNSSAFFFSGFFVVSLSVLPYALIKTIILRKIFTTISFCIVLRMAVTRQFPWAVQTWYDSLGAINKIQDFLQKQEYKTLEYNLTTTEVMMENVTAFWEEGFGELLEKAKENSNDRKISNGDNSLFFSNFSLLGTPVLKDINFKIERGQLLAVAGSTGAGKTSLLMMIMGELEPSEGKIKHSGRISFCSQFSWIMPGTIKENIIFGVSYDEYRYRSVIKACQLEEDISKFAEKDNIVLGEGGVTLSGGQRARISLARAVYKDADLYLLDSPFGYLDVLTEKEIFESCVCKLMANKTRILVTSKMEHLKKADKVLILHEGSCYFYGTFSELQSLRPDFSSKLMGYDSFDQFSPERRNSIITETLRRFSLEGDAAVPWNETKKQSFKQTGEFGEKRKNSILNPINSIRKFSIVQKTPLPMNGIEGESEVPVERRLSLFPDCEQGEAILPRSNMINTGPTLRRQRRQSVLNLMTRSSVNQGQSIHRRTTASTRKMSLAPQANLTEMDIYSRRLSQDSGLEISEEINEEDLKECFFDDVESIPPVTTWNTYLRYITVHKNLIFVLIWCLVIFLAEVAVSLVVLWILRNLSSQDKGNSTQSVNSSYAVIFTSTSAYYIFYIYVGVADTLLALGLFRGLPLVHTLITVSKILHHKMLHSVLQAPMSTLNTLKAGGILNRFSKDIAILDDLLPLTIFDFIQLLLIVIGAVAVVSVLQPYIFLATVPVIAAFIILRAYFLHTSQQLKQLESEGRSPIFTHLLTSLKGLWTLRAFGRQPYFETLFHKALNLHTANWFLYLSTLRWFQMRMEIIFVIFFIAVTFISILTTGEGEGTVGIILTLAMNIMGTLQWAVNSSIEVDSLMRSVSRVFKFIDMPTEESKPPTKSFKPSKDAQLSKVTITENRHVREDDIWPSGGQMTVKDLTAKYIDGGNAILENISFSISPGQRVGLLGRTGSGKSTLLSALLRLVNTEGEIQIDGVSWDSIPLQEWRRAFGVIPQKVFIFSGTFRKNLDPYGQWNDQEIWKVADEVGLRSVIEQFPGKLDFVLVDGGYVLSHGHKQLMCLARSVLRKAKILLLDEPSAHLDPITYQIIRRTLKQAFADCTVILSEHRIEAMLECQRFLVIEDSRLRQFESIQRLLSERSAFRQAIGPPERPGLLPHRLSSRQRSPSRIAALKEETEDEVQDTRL
wild-type CFTR Cl- channels, sequence (P13569 whole entry): as the sequence (P13569 whole entry) above

Compound: O=C1OC2(c3ccc(O)cc3Oc3cc(O)ccc32)c2ccccc21 [fluorescein]
effect on CFTR Cl- currents (concentration-response, FIG. 3) ([1]; -50 mV): only inhibited

Compound: O=C(O)c1c(Cl)c(Cl)c(Cl)c(Cl)c1-c1c2cc(Br)c(=O)c(Br)c-2oc2c(Br)c(O)c(Br)cc12 [phloxine B]
effect on KATP currents in pancreatic β-cells [2]: inhibits KATP currents
effect on iodide efflux in the absence of cAMP agonists ([3]; 10 μM): without effect
effect on cAMP-stimulated iodide efflux ([3]; 10 μM with cAMP agonists): enhanced both the speed and magnitude
open probability (Po) [4, 7]: large increase in Po
single-channel current amplitude (i) [4, 7]: small, but significant (P<0.05), reduction
interburst interval ([4]; 1 μM, single active channel): no change; also recorded: without effect
mean burst duration ([4]; 1 μM, single active channel): large increase in the duration of bursts; also recorded: significantly increased
Po in the presence of ADP ([4]; ADP 0.3 mM + phloxine B 1 μM, ATP 0.3 mM, PKA 75 nM): 0.43±0.05
maximum Po (Pomax), Michaelis-Menten fit ([4]; in the presence of phloxine B 1 μM): 0.72
interburst interval of ΔF508 [5]: without altering
mean burst duration of ΔF508 CFTR Cl channels [5]: dramatically prolonging
increase of the Po of ΔF508 ([5]; ATP 1.0 mM, PKA 75 nM): 1.5 fold
Ki [1]: 17 µM
reversibility of modulation of CFTR [1]: partially reversible
effect on CFTR Cl- currents (concentration-response, FIG. 3) ([1]; -50 mV): stimulated and inhibited
n (Hill coefficient) of current inhibition ([1]; -50 mV): 2
concentrations causing concentration-dependent decrease in CFTR Cl- current ([1]; ATP 0.3 mM, PKA 75 nM, -50 mV): 20 to 50 µM
concentrations that stimulated CFTR Cl- currents ([1]; ATP 0.3 mM, PKA 75 nM, -50 mV): 1 to 5 µM
effect on the activity of CFTR Cl- channels ([1]; added to intracellular solution in the absence of either ATP or PKA): without effect
effect on channel activity at positive voltages [1, 8]: relieve channel block by phloxine B (40 μM), but do not stimulate channel activity
concentration that maximally stimulated channel activity [1]: 5 µM

Compound: O=c1c(-c2ccc(O)cc2)coc2cc(O)cc(O)c12 [genistein, 5,7-dihydrox-3-(4-hydroxyphenyl)-4H-1-benzopyran-4-one]
concentration that maximally stimulated wild-type CFTR Cl- channels [6]: 35 µM

open probability (Po) [4, 7]: 0.43±0.02
effect on CFTR Cl- currents (concentration-response, FIG. 3) ([1]; -50 mV): stimulated and inhibited
effect on channel activity at positive voltages [1, 8]: channel activity is stimulated
effect on channel activity at negative voltages [1, 8]: inhibits channel activity
Compound: O=C1OC2(c3ccccc31)c1cc(Br)c(O)c(Br)c1Oc1c2cc(Br)c(O)c1Br [eosin Y]

effect on CFTR Cl- currents (concentration-response, FIG. 3) ([1]; -50 mV): only inhibited
Compound: O=C1OC2(c3ccc(O)cc3Oc3cc(O)ccc32)c2c(Cl)c(Cl)c(Cl)c(Cl)c21 [tetrachlorofluorescein]

Compound: Nc1ncnc2c1ncn2[C@@H]1O[C@H](COP(=O)(O)OP(=O)(O)O)[C@@H](O)[C@H]1O [ADP, reference compound]
Po ([4]; ADP 0.3 mM alone, ATP 0.3 mM, PKA 75 nM): 0.21±0.02
Po as % of the control value ([4]; ADP 0.3 mM, ATP 0.3 mM, PKA 75 nM): 49±1%

open probability (Po) [4, 7]: 0.40±0.08
effect on CFTR Cl- currents (concentration-response, FIG. 3) ([1]; -50 mV): stimulated and inhibited
concentrations that stimulated CFTR Cl- currents ([1]; ATP 0.3 mM, PKA 75 nM, -50 mV): 0.1 to 1.0 µM
concentration that maximally stimulated channel activity [1]: 1 µM
Compound: O=C1OC2(c3cc(I)c(O)c(I)c3Oc3c2cc(I)c(O)c3I)c2c(Cl)c(Cl)c(Cl)c(Cl)c21 [bengal rose B]

Compound: Nc1ncnc2c1ncn2[C@@H]1O[C@H](COP(=O)(O)OP(=O)(O)OP(=O)(O)O)[C@@H](O)[C@H]1O [ATP, reference compound]
EC50 ([1]; PKA-phosphorylated channels, read-out: EC50 for activation of CFTR Cl- channels by intracellular ATP): 300 µM
